Test system: Bacillus atrophaeus ATCC 9372 spores
Experiment: Spore inactivation by 3.25 wt. % performic acid at various times and temperatures
Type: cell-based
Conditions: for Colony Forming Units (CFU) / Log Reduction: 3.25 wt. % performic acid
Description: An aqueous solution containing x weight percent of performic acid may be prepared by (1) diluting a commercially available aqueous solution of hydrogen peroxide (e.g., a 30 weight percent aqueous solution or a 50 weight percent aqueous solution) down to a concentration of 2x; (2) diluting a commercially available aqueous solution of formic acid (e.g., a 95 weight percent aqueous solution) down to a concentration of 2x; and (3) combining the diluted solution of hydrogen peroxide and the diluted solution of formic acid in a 1:1 volume, thereby providing performic acid in a concentration of x.
The procedure for performing spore inactivation tests in solution is as follows: Bacillus atrophaeus ATCC 9372 spores in saline were equilibrated in a water bath at the preselected test temperature, as was a formic acid/hydrogen peroxide mixture. At an initial time (T0), a volume of the formic acid/peroxide mixture was added to the spore preparation, such that the pre-chosen test concentration of the sterilization agent was achieved. At preselected times after the addition of the sterilization agent to the spore preparation, aliquots of the spore-treated mixture were transferred into a solution containing an excess of catalase (MP Biomedical) in order to quench the peroxide reaction. This solution was then serially ten-fold diluted and spread-plated onto tryptic soy agar plates that were subsequently incubated at 35° C. for 48 hours and enumerated.
An aqueous solution containing 3.25 wt. % of performic acid was prepared by (1) diluting a 50 wt. % aqueous solution of hydrogen peroxide down to a concentration of 6.5 wt. %; (2) diluting a 95 wt. % aqueous solution of formic acid down to a concentration of 6.5 wt. %; and (3) combining the 6.5 wt. % solution of hydrogen peroxide and the 6.5 wt. % solution of formic acid in a 1:1 volume.

performic acid
Colony Forming Units (CFU) (10° C., 5 seconds): 0 CFU | Log Reduction (10° C., 5 seconds): >7.8 | Colony Forming Units (CFU) (10° C., 10 seconds): 0 CFU | Log Reduction (10° C., 10 seconds): >7.8 | Colony Forming Units (CFU) (10° C., 15 seconds): 0 CFU | Log Reduction (10° C., 15 seconds): >7.8 | Colony Forming Units (CFU) (20° C., 5 seconds): 0 CFU | Log Reduction (20° C., 5 seconds): >8 | Colony Forming Units (CFU) (20° C., 10 seconds): 0 CFU | Log Reduction (20° C., 10 seconds): >8 | Colony Forming Units (CFU) (20° C., 15 seconds): 0 CFU | Log Reduction (20° C., 15 seconds): >8 | effectiveness in killing spores (in words) (room temperature and below (e.g., 5° C. or 10° C.), exposure times as little as 5 seconds): surprisingly and unexpectedly effective
